Target: CCR2 (Homo sapiens (Human), UniProt P41597)
Experiment: Calcium activity assayed on the FLIPR Tetra in HEK-Gqi5 cells stably expressing CCR2
Format: cell-based
Conditions: FLIPR Tetra calcium assay

Chain of CCR2 (P41597 whole entry, species assumed): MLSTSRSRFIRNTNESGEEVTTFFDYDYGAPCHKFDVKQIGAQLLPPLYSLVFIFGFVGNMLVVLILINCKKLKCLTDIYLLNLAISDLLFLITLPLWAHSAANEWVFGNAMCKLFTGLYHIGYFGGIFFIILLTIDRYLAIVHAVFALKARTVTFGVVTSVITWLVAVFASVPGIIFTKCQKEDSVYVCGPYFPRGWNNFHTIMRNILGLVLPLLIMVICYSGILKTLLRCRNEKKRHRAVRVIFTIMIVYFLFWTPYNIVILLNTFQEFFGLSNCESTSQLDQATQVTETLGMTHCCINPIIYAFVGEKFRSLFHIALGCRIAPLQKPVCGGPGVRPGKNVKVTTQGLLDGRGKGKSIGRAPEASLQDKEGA

CCR2 % ANTAGONISM	IC50	SMILES
86%	153 nM	O=S(=O)(Nc1cc(Cl)ccc1[S+]([O-])CCc1ccccn1)c1cc2ccccc2o1 (stereo not shown) [N-{5-chloro-2-[(2-pyridin-2-ylethyl)sulfinyl]phenyl}-1-benzofuran-2-sulfonamide]
93%	197 nM	O=S(=O)(CCc1ccccn1)c1ccc(Cl)cc1NS(=O)(=O)c1cc2ccccc2o1 [N-{5-chloro-2-[(2-pyridin-2-ylethyl)sulfonyl]phenyl}-1-benzofuran-2-sulfonamide]
84%	713 nM	O=S(=O)(Nc1cc(Cl)ccc1SCCc1ccccn1)c1cc2ccccc2o1 [N-{5-chloro-2-[(2-pyridin-2-ylethyl)thio]phenyl}-1-benzofuran-2-sulfonamide]
103%	112 nM	O=S(=O)(Nc1cc(Cl)ccc1[S+]([O-])Cc1cccc(O)c1)c1cc2ccccc2o1 (stereo not shown) [N-{5-chloro-2-[(3-hydroxybenzyl)sulfinyl]phenyl}-1-benzofuran-2-sulfonamide]
96%	56 nM	O=S(=O)(Cc1cccc(O)c1)c1ccc(Cl)cc1NS(=O)(=O)c1cc2ccccc2o1 [N-{5-chloro-2-[(3-hydroxybenzyl)sulfonyl]phenyl}-1-benzofuran-2-sulfonamide]
98%	77 nM	O=S(=O)(Nc1cc(Cl)ccc1SCc1cccc(O)c1)c1cc2ccccc2o1 [N-{5-chloro-2-[(3-hydroxybenzyl)thio]phenyl}-1-benzofuran-2-sulfonamide]
85%	651 nM	COc1cccc(CSc2ccc(Cl)cc2NS(=O)(=O)c2cc3ccccc3o2)c1 [N-{5-chloro-2-[(3-methoxybenzyl)thio]phenyl}-1-benzofuran-2-sulfonamide]
63%	–	O=[N+]([O-])c1cccc(CSc2ccc(Cl)cc2NS(=O)(=O)c2cc3ccccc3o2)c1 [N-{5-chloro-2-[(3-nitrobenzyl)thio]phenyl}-1-benzofuran-2-sulfonamide]
20%	2160 nM	O=[N+]([O-])c1ccc(CS(=O)(=O)c2ccc(Cl)cc2NS(=O)(=O)c2cc3ccccc3o2)cc1 [N-{5-chloro-2-[(4-nitrobenzyl)sulfonyl]phenyl}-1-benzofuran-2-sulfonamide]
82%	147 nM	O=[N+]([O-])c1ccc(CSc2ccc(Cl)cc2NS(=O)(=O)c2cc3ccccc3o2)cc1 [N-{5-chloro-2-[(4-nitrobenzyl)thio]phenyl}-1-benzofuran-2-sulfonamide]
100%	29 nM	O=S(=O)(Nc1cc(Cl)ccc1[S+]([O-])Cc1ccccn1)c1cc2ccccc2o1 (stereo not shown) [N-{5-chloro-2-[(pyridin-2-ylmethyl)sulfinyl]phenyl}-1-benzofuran-2-sulfonamide]
100%	29 nM	O=S(=O)(Cc1ccccn1)c1ccc(Cl)cc1NS(=O)(=O)c1cc2ccccc2o1 [N-{5-chloro-2-[(pyridin-2-ylmethyl)sulfonyl]phenyl}-1-benzofuran-2-sulfonamide]
91%	35 nM	O=S(=O)(Nc1cc(Cl)ccc1SCc1ccccn1)c1cc2ccccc2o1 [N-{5-chloro-2-[(pyridin-2-ylmethyl)thio]phenyl}-1-benzofuran-2-sulfonamide]
100%	76 nM	O=S(=O)(Nc1cc(Cl)ccc1[S+]([O-])Cc1cccnc1)c1cc2ccccc2o1 (stereo not shown) [N-{5-chloro-2-[(pyridin-3-ylmethyl)sulfinyl]phenyl}-1-benzofuran-2-sulfonamide]
93%	32 nM	O=S(=O)(Cc1cccnc1)c1ccc(Cl)cc1NS(=O)(=O)c1cc2ccccc2o1 [N-{5-chloro-2-[(pyridin-3-ylmethyl)sulfonyl]phenyl}-1-benzofuran-2-sulfonamide]
97%	22 nM	O=S(=O)(Nc1cc(Cl)ccc1SCc1cccnc1)c1cc2ccccc2o1 [N-{5-chloro-2-[(pyridin-3-ylmethyl)thio]phenyl}-1-benzofuran-2-sulfonamide]
104%	506 nM	O=S(=O)(Nc1cc(Cl)ccc1[S+]([O-])Cc1ncccn1)c1cc2ccccc2o1 (stereo not shown) [N-{5-chloro-2-[(pyrimidin-2-ylmethyl)sulfinyl]phenyl}-1-benzofuran-2-sulfonamide]

More lines, now with the values behind:

SMILES	CCR2 % ANTAGONISM	IC50
Nc1cccc(CSc2ccccc2NS(=O)(=O)c2cc3ccccc3o2)c1 [N-{2-[(3-aminobenzyl)thio]phenyl}-1-benzofuran-2-sulfonamide]	105%	676 nM
Nc1cccc(C[S+]([O-])c2ccc(Cl)cc2NS(=O)(=O)c2cc3ccccc3o2)c1 (stereo not shown) [N-{2-[(3-aminobenzypsulfinyl]-5-chlorophenyl}-1-benzofuran-2-sulfonamide]	96%	39 nM
Nc1cccc(C[S+]([O-])c2ccc(Cl)cc2NS(=O)(=O)c2cccc(Cl)c2)c1 (stereo not shown) [N-{2-[(3-aminobenzypsulfinyl]-5-chlorophenyl}-3-chlorobenzenesulfonamide]	93%	159 nM
Nc1cccc(CS(=O)(=O)c2ccc(Cl)cc2NS(=O)(=O)c2cc3ccccc3o2)c1 [N-{2-[(3-aminobenzypsulfonyl]-5-chlorophenyl}-1-benzofuran-2-sulfonamide]	90%	23 nM
Nc1cccc(CS(=O)(=O)c2ccc(Cl)cc2NS(=O)(=O)c2cccc(Cl)c2)c1 [N-{2-[(3-aminobenzypsulfonyl]-5-chlorophenyl}-3-chlorobenzenesulfonamide]	91%	246 nM
Nc1cccc(CSc2ccc(Cl)cc2NS(=O)(=O)c2cc3ccccc3o2)c1 [N-{2-[(3-aminobenzypthio]-5-chlorophenyl}-1-benzofuran-2-sulfonamide]	92%	42 nM
NCCC[S+]([O-])c1ccc(Cl)cc1NS(=O)(=O)c1cc2ccccc2o1 (stereo not shown) [N-{2-[(3-aminopropyl)sulfinyl]-5-chlorophenyl}-1-benzofuran-2-sulfonamide]	63%	–
NCCCS(=O)(=O)c1ccc(Cl)cc1NS(=O)(=O)c1cc2ccccc2o1 [N-{2-[(3-aminopropyl)sulfonyl]-5-chlorophenyl}-1-benzofuran-2-sulfonamide]	82%	–
NCCCSc1ccc(Cl)cc1NS(=O)(=O)c1cc2ccccc2o1 [N-{2-[(3-aminopropyl)thio]-5-chlorophenyl}-1-benzofuran-2-sulfonamide]	102%	–
O=[N+]([O-])c1cccc(C[S+]([O-])c2ccccc2NS(=O)(=O)c2cc3ccccc3o2)c1 (stereo not shown) [N-{2-[(3-nitrobenzyl)sulfinyl]phenyl}-1-benzofuran-2-sulfonamide]	97%	653 nM
O=[N+]([O-])c1cccc(CS(=O)(=O)c2ccccc2NS(=O)(=O)c2cc3ccccc3o2)c1 [N-{2-[(3-nitrobenzyl)sulfonyl]phenyl}-1-benzofuran-2-sulfonamide]	83%	2130 nM
Nc1ccc(CS(=O)(=O)c2ccc(Cl)cc2NS(=O)(=O)c2cc3ccccc3o2)cc1 [N-{2-[(4-aminobenzyl)sulfonyl]-5-chlorophenyl}-1-benzofuran-2-sulfonamide]	104%	90 nM
CC(=O)Nc1nc(CSc2ccc(Cl)cc2NS(=O)(=O)c2cc3ccccc3o2)cs1 [N-{4-[({2-[(1-benzofuran-2-ylsulfonyl)amino]-4-chlorophenyl}thio)methyl]-1,3-thiazol-2-yl}acetamide]	102%	848 nM
O=S(=O)(Nc1cc(Cl)ccc1[S+]([O-])Cc1ncc[nH]1)c1cc2ccccc2o1 (stereo not shown) [N-{5-chloro-2-[(1H-imidazol-2-ylmethyl)sulfinyl]phenyl}-1-benzofuran-2-sulfonamide]	108%	1900 nM
O=S(=O)(Cc1ncc[nH]1)c1ccc(Cl)cc1NS(=O)(=O)c1cc2ccccc2o1 [N-{5-chloro-2-[(1H-imidazol-2-ylmethyl)sulfonyl]phenyl}-1-benzofuran-2-sulfonamide]	109%	1350 nM
O=S(=O)(Nc1cc(Cl)ccc1SCc1ncc[nH]1)c1cc2ccccc2o1 [N-{5-chloro-2-[(1H-imidazol-2-ylmethyl)thio]phenyl}-1-benzofuran-2-sulfonamide]	93%	60 nM
O=S(=O)(Nc1cc(Cl)ccc1[S+]([O-])Cc1c[nH]cn1)c1cc2ccccc2o1 (stereo not shown) [N-{5-chloro-2-[(1H-imidazol-4-ylmethyl)sulfinyl]phenyl}-1-benzofuran-2-sulfonamide]	108%	296 nM
O=S(=O)(Cc1c[nH]cn1)c1ccc(Cl)cc1NS(=O)(=O)c1cc2ccccc2o1 [N-{5-chloro-2-[(1H-imidazol-4-ylmethyl)sulfonyl]phenyl}-1-benzofuran-2-sulfonamide]	106%	81 nM
O=S(=O)(Nc1cc(Cl)ccc1SCc1c[nH]cn1)c1cc2ccccc2o1 [N-{5-chloro-2-[(1H-imidazol-4-ylmethyl)thio]phenyl}-1-benzofuran-2-sulfonamide]	100%	10 nM
O=S(=O)(Nc1cc(Cl)ccc1[S+]([O-])Cc1cc[nH]n1)c1cc2ccccc2o1 (stereo not shown) [N-{5-chloro-2-[(1H-pyrazol-3-ylmethyl)sulfinyl]phenyl}-1-benzofuran-2-sulfonamide]	99%	634 nM
O=S(=O)(Cc1cc[nH]n1)c1ccc(Cl)cc1NS(=O)(=O)c1cc2ccccc2o1 [N-{5-chloro-2-[(1H-pyrazol-3-ylmethyl)sulfonyl]phenyl}-1-benzofuran-2-sulfonamide]	102%	367 nM
O=S(=O)(Nc1cc(Cl)ccc1SCc1cc[nH]n1)c1cc2ccccc2o1 [N-{5-chloro-2-[(1H-pyrazol-3-ylmethyl)thio]phenyl}-1-benzofuran-2-sulfonamide]	99%	16 nM
O=[N+]([O-])c1ccccc1C[S+]([O-])c1ccc(Cl)cc1NS(=O)(=O)c1cc2ccccc2o1 (stereo not shown) [N-{5-chloro-2-[(2-nitrobenzyl)sulfinyl]phenyl}-1-benzofuran-2-sulfonamide]	95%	75 nM

— patent publication US9663460B2, “Sulfur derivatives as chemokine receptor modulators” (ALLERGAN, INC., priority 2010, dated 2017)
